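Test compounds were applied to cells in 96-well plates for 48 hours at 5 doses. Abbreviation: GI50, concentration required for 50% inhibition of growth. Definition used: TGI = concentration required for complete inhibition of growth.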
Key:
Test in all cases: inhibition of tumour cell growth, NCI panel, 48 h
[1] = test system: SK-MEL-2 melanoma
[2] = test system: OVCAR-3 ovarian
[3] = test system: CAKI-1 renal
[4] = test system: COLO 205 colon
[5] = test system: DU-145 prostate
[6] = test system: RXF 393 renal
[7] = test system: T-47D breast
[8] = test system: NCI-H460 lung
[9] = test system: SNB-75 CNS
[10] = test system: MDA-MB-435
[11] = test system: NCI-H226 lung
[12] = test system: HCT-15 colon
[13] = test system: SF-539 CNS
[14] = test system: CCRF-CEM leukemia
[15] = test system: OVCAR-5 ovarian
[16] = test system: KM12 colon
[17] = test system: NCI-H23 lung
[18] = test system: HOP-62 NSCLC
[19] = test system: NCI-H522 lung
[20] = test system: MOLT-4 leukemia
[21] = test system: SK-MEL-28 melanoma
[22] = test system: HS 578T breast
[23] = test system: SW-620 colon
[24] = test system: HT29 colon
[25] = test system: SK-OV-3 ovarian
[26] = test system: A549 NSCLC
[27] = test system: SN12C renal
[28] = test system: UO-31 renal
[29] = test system: PC-3 prostate
[30] = test system: TK-10 renal
[31] = test system: OVCAR-4 ovarian
[32] = test system: K-562 leukemia
[33] = test system: OVCAR-8 ovarian
[34] = test system: SF-268 CNS
[35] = test system: UACC-62 melanoma
[36] = test system: U251 CNS
[37] = test system: SK-MEL-5 melanoma
[38] = test system: ACHN renal
[39] = test system: RPMI-8226 leukemia
[40] = test system: MCF7 breast
[41] = test system: IGROV1 ovarian
[42] = test system: 786-0 renal
[43] = test system: HCC-2998 colon
[44] = test system: LOX IMVI melanoma
[45] = test system: HOP-92 NSCLC
[46] = test system: MALME-3M melanoma
[47] = test system: SNB-19 CNS
[48] = test system: NCI/ADR-RES ovarian
[49] = test system: MDA-MB-231 breast
[50] = test system: HCT-116 colon
[51] = test system: UACC-257 melanoma
[52] = test system: BT-549 breast
[53] = test system: SF-295 CNS
[54] = test system: HL-60(TB) leukemia

## O=C1c2ccccc2-c2nnc(-c3ccc(Br)cc3)cc21
[1]
  GI50: > 100 µM
  TGI: > 100 µM
[2]
  GI50: > 100 µM
  TGI: > 100 µM
[3]
  GI50: > 100 µM
  TGI: > 100 µM
[4]
  GI50: > 100 µM
  TGI: > 100 µM
[5]
  GI50: > 100 µM
  TGI: > 100 µM
[6]
  GI50: > 100 µM
  TGI: > 100 µM
[7]
  GI50: 48.8 µM
  TGI: > 100 µM
[8]
  GI50: > 100 µM
  TGI: > 100 µM
[9]
  GI50: > 100 µM
  TGI: > 100 µM
[10]
  GI50: > 100 µM
  TGI: > 100 µM
[11]
  GI50: > 100 µM
  TGI: > 100 µM
[12]
  GI50: > 100 µM
  TGI: > 100 µM
[13]
  GI50: > 100 µM
  TGI: > 100 µM
[14]
  GI50: > 100 µM
  TGI: > 100 µM
[15]
  GI50: > 100 µM
  TGI: > 100 µM
[16]
  GI50: > 100 µM
  TGI: > 100 µM
[17]
  GI50: > 100 µM
  TGI: > 100 µM
[18]
  GI50: > 100 µM
  TGI: > 100 µM
[19]
  GI50: > 100 µM
  TGI: > 100 µM
[20]
  GI50: > 100 µM
  TGI: > 100 µM
[21]
  GI50: > 100 µM
  TGI: > 100 µM
[22]
  GI50: > 100 µM
  TGI: > 100 µM
[23]
  GI50: > 100 µM
  TGI: > 100 µM
[24]
  GI50: > 100 µM
  TGI: > 100 µM
[25]
  GI50: > 100 µM
  TGI: > 100 µM
[26]
  GI50: > 100 µM
  TGI: > 100 µM
[27]
  GI50: > 100 µM
  TGI: > 100 µM
[28]
  GI50: > 100 µM
  TGI: > 100 µM
[29]
  GI50: > 100 µM
  TGI: > 100 µM
[30]
  GI50: > 100 µM
  TGI: > 100 µM
[31]
  GI50: > 100 µM
  TGI: > 100 µM
[32]
  GI50: > 100 µM
  TGI: > 100 µM
[33]
  GI50: > 100 µM
  TGI: > 100 µM
[34]
  GI50: > 100 µM
  TGI: > 100 µM
[35]
  GI50: > 100 µM
  TGI: > 100 µM
[36]
  GI50: > 100 µM
  TGI: > 100 µM
[37]
  GI50: > 100 µM
  TGI: > 100 µM
[38]
  GI50: > 100 µM
  TGI: > 100 µM
[39]
  GI50: > 100 µM
  TGI: > 100 µM
[40]
  GI50: > 100 µM
  TGI: > 100 µM
[41]
  GI50: > 100 µM
  TGI: > 100 µM
[42]
  GI50: > 100 µM
  TGI: > 100 µM
[43]
  GI50: > 100 µM
  TGI: > 100 µM
[44]
  GI50: > 100 µM
  TGI: > 100 µM
[45]
  GI50: > 100 µM
  TGI: > 100 µM
[46]
  GI50: > 100 µM
  TGI: > 100 µM
[47]
  GI50: > 100 µM
  TGI: > 100 µM
[48]
  GI50: > 100 µM
  TGI: > 100 µM
[49]
  GI50: > 100 µM
  TGI: > 100 µM
[50]
  GI50: > 100 µM
  TGI: > 100 µM
[51]
  GI50: > 100 µM
  TGI: > 100 µM
[52]
  GI50: > 100 µM
  TGI: > 100 µM
[53]
  GI50: > 100 µM
  TGI: > 100 µM
[54]
  GI50: > 100 µM
  TGI: > 100 µM

Reference: PubChem BioAssay (NCI)
